According to the NIST ThermoML archive (doi:10.1016/j.jct.2009.01.008):
Numbers after ± are expanded uncertainties.

Experiments:
[1] = 101 kPa, Liquid, Linear variable-path acoustic interferometer
[2] = refractive index (Na D-line) (dimensionless); details: 298.15 K; 101.33 kPa; Liquid
[3] = xn = mol fraction of the nth substance listed; details: 101 kPa, Liquid, Linear variable-path acoustic interferometer

CC(C)CC(C)(C)C [2,2,4-trimethylpentane]
[1]
Details | speed of sound [m/s]
298.15 K | 1082.8 ± 1.8
308.15 K | 1041.1 ± 1.8
318.15 K | 1000 ± 1.8
328.15 K | 958.4 ± 1.8

Details | refractive index
[2] | 1.38905 ± 0.00021

CC(C)CC(C)(C)C [2,2,4-trimethylpentane] + COC(C)(C)C
[3], x2 = 0
Details | speed of sound [m/s]
298.15 K | 1082.8 ± 1.8
308.15 K | 1041.1 ± 1.8
318.15 K | 1000 ± 1.8
328.15 K | 958.4 ± 1.8

CC(C)CC(C)(C)C [2,2,4-trimethylpentane] + Cc1ccccc1
speed of sound [m/s], [3]
Details | 298.15 K | 308.15 K | 318.15 K | 328.15 K
x2 = 0 | 1082.8 ± 1.8 | 1041.1 ± 1.8 | 1000 ± 1.8 | 958.4 ± 1.8
x2 = 0.07776 | 1092.7 ± 1.8 | 1051.1 ± 1.8 | 1009.9 ± 1.8 | 969.3 ± 1.7
x2 = 0.1405 | 1101.3 ± 1.8 | 1059.7 ± 1.8 | 1018.5 ± 1.7 | 977.9 ± 1.7
x2 = 0.2059 | 1110.8 ± 1.8 | 1069.2 ± 1.7 | 1028.1 ± 1.7 | 987.5 ± 1.7
x2 = 0.2671 | 1120.3 ± 1.8 | 1078.7 ± 1.7 | 1037.6 ± 1.7 | 997 ± 1.7
x2 = 0.3385 | 1132.3 ± 1.7 | 1090.7 ± 1.7 | 1049.5 ± 1.7 | 1008.8 ± 1.7
x2 = 0.3976 | 1143 ± 1.7 | 1101.3 ± 1.7 | 1060.1 ± 1.7 | 1019.4 ± 1.7
x2 = 0.4724 | – | 1115.6 ± 1.7 | 1074.3 ± 1.7 | –
x2 = 0.5328 | 1170 ± 1.7 | – | 1086.9 ± 1.7 | 1046.1 ± 1.7
x2 = 0.5966 | 1184.2 ± 1.7 | 1142.3 ± 1.7 | 1100.9 ± 1.7 | 1060 ± 1.6
x2 = 0.6699 | 1201.9 ± 1.7 | 1159.9 ± 1.7 | 1118.4 ± 1.7 | 1077.5 ± 1.6
x2 = 0.7302 | 1217.5 ± 1.7 | 1175.4 ± 1.7 | – | 1092.8 ± 1.6
x2 = 0.7895 | – | – | 1150.3 ± 1.7 | –
x2 = 0.8001 | 1237.5 ± 1.7 | 1195.3 ± 1.7 | 1153.6 ± 1.7 | 1112.4 ± 1.6
x2 = 0.8681 | 1258.4 ± 1.7 | 1216.1 ± 1.7 | 1174.2 ± 1.7 | 1132.8 ± 1.6
x2 = 0.8691 | 1259 ± 1.7 | – | – | –
x2 = 0.9539 | 1288.1 ± 1.7 | 1245.4 ± 1.7 | 1203.3 ± 1.7 | –

COC(C)(C)C [2-methoxy-2-methylpropane]
[1]
Details | speed of sound [m/s]
298.15 K | 1036.4 ± 1.6
308.15 K | 990.8 ± 1.5
318.15 K | 945.3 ± 1.5

Details | refractive index
[2] | 1.36648 ± 0.00012

COC(C)(C)C [2-methoxy-2-methylpropane] + CC(C)CC(C)(C)C
speed of sound [m/s], [3]
Details | 298.15 K | 308.15 K | 318.15 K | 328.15 K
x1 = 0.05551 | 1079.2 ± 1.8 | 1037.5 ± 1.8 | – | –
x1 = 0.08857 | 1077.1 ± 1.8 | – | 993.7 ± 1.7 | 952.7 ± 1.7
x1 = 0.1305 | 1074.8 ± 1.8 | 1032.8 ± 1.7 | 991.2 ± 1.7 | –
x1 = 0.1971 | 1071 ± 1.7 | 1028.7 ± 1.7 | 986.9 ± 1.7 | 945.5 ± 1.7
x1 = 0.2599 | 1067.4 ± 1.7 | 1024.9 ± 1.7 | 983 ± 1.7 | 941.5 ± 1.7
x1 = 0.3284 | 1063.8 ± 1.7 | 1021 ± 1.7 | 978.9 ± 1.7 | –
x1 = 0.3315 | – | – | – | 936.4 ± 1.7
x1 = 0.4078 | 1059.5 ± 1.7 | 1016.4 ± 1.7 | 973.8 ± 1.7 | –
x1 = 0.4756 | 1056.1 ± 1.7 | 1012.7 ± 1.7 | – | –
x1 = 0.5629 | 1052 ± 1.7 | 1008.2 ± 1.6 | 964.9 ± 1.6 | 922.2 ± 1.6
x1 = 0.6184 | 1049.5 ± 1.6 | – | – | –
x1 = 0.6831 | 1046.7 ± 1.6 | 1002.5 ± 1.6 | 958.7 ± 1.6 | 915.2 ± 1.6
x1 = 0.7456 | 1044.1 ± 1.6 | 995.5 ± 1.6 | 955.6 ± 1.6 | –
x1 = 0.7644 | 1043.4 ± 1.6 | – | – | –
x1 = 0.8143 | 1041.7 ± 1.6 | – | – | –
x1 = 0.8155 | 1041.5 ± 1.6 | 996.6 ± 1.6 | 952.4 ± 1.6 | –
x1 = 0.8675 | 1039.8 ± 1.6 | 994.7 ± 1.6 | 950 ± 1.5 | –
x1 = 0.9376 | 1037.8 ± 1.6 | 992.5 ± 1.5 | 947.4 ± 1.5 | –
x1 = 1 | 1036.4 ± 1.6 | 990.8 ± 1.5 | 945.3 ± 1.5 | –

COC(C)(C)C [2-methoxy-2-methylpropane] + Cc1ccccc1
speed of sound [m/s], [3]
Details | 298.15 K | 308.15 K | 318.15 K | 328.15 K
x1 = 0.1021 | 1277.4 ± 1.7 | 1234.5 ± 1.7 | 1192 ± 1.6 | 1149.9 ± 1.6
x1 = 0.2035 | 1250 ± 1.7 | 1206.7 ± 1.6 | 1163.9 ± 1.6 | 1121.6 ± 1.6
x1 = 0.2591 | 1234.8 ± 1.7 | 1191.3 ± 1.6 | 1148.5 ± 1.6 | 1106.1 ± 1.6
x1 = 0.3321 | 1215.2 ± 1.7 | 1171.6 ± 1.6 | 1128.4 ± 1.6 | 1086.2 ± 1.6
x1 = 0.4008 | 1196.7 ± 1.6 | 1152.9 ± 1.6 | 1109.5 ± 1.6 | 1066.9 ± 1.6
x1 = 0.4665 | – | – | – | 1049.4 ± 1.6
x1 = 0.5323 | – | – | – | 1030.2 ± 1.6
x1 = 0.5894 | 1145.8 ± 1.6 | 1101.5 ± 1.6 | 1057.6 ± 1.6 | –
x1 = 0.664 | 1125.8 ± 1.6 | 1081.2 ± 1.6 | 1037 ± 1.6 | –
x1 = 0.7257 | – | – | 1020.4 ± 1.6 | 976.5 ± 1.5
x1 = 0.7956 | – | 1045.7 ± 1.6 | 1001 ± 1.5 | 958.4 ± 1.5
x1 = 0.8643 | 1072.3 ± 1.6 | 1027.1 ± 1.6 | 982.4 ± 1.5 | –
x1 = 0.9025 | 1062.2 ± 1.6 | 1016.8 ± 1.6 | 971.6 ± 1.5 | –
x1 = 1 | 1036.4 ± 1.6 | 990.8 ± 1.5 | 945.3 ± 1.5 | –

Cc1ccccc1 [toluene]
[1]
Details | speed of sound [m/s]
298.15 K | 1305.4 ± 1.7
308.15 K | 1262.6 ± 1.7
318.15 K | 1220.3 ± 1.7
328.15 K | 1178.6 ± 1.6

Details | refractive index
[2] | 1.4941 ± 0.0001

Cc1ccccc1 [toluene] + CC(C)CC(C)(C)C
[3], x1 = 1
Details | speed of sound [m/s]
298.15 K | 1305.4 ± 1.7
308.15 K | 1262.6 ± 1.7
318.15 K | 1220.3 ± 1.7
328.15 K | 1178.6 ± 1.6

Cc1ccccc1 [toluene] + COC(C)(C)C
[3], x2 = 0
Details | speed of sound [m/s]
298.15 K | 1305.4 ± 1.7
308.15 K | 1262.6 ± 1.7
318.15 K | 1220.3 ± 1.7
328.15 K | 1178.6 ± 1.6
